Legend:
Assay in all cases: Cysteine liganding, probe competition
Type in all cases: binding
[1] = biological target: T1, KEAP1 Kelch-like ECH-associated protein 1 (Homo sapiens, UniProt Q14145); details: KEAP1 Res# 288, uniprot Q14145
T1 construct: Cells were resuspended in cold PBS on ice and sonicated with a probe sonicator to achieve lysis; endogenous in cells
Method in brief: (§1)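 Probe competition in native proteome: 5 mg/ml lysate, compound 1 hr 25° C, then desthiobiotin iodoacetamide (10 mM stock) 1 hr 25° C; acetone ppt, urea/DTT reduction, iodoacetamide alkylation, trypsin, streptavidin pull-down.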

[2] = biological target: T2, TRIP12 E3 ubiquitin-protein ligase TRIP12 (Homo sapiens, UniProt Q14669); details: TRIP12 Res# 1959, uniprot Q14669
T2 construct: Cells were resuspended in cold PBS on ice and sonicated with a probe sonicator to achieve lysis; endogenous in cells
Method in brief: as §1

[3] = biological target: T3, VDAC2 Voltage-dependent anion-selective channel protein (Homo sapiens, UniProt P45880)
T3 construct: Cells were resuspended in cold PBS on ice and sonicated with a probe sonicator to achieve lysis; endogenous in cells
T3 sequence (P45880 whole entry): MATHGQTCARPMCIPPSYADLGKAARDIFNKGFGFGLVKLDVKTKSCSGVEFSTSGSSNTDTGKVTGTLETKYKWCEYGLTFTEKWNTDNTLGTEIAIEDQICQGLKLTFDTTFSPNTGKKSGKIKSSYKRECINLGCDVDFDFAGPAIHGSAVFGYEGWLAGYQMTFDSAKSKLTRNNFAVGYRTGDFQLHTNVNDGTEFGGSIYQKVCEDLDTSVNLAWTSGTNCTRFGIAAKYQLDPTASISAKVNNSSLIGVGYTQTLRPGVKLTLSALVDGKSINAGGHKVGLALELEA
Method in brief: as §1

VPRBP Protein VPRBP = biological target: T4, VPRBP Protein VPRBP (Homo sapiens, UniProt Q9Y4B6)
T4 construct: Cells were resuspended in cold PBS on ice and sonicated with a probe sonicator to achieve lysis; endogenous in cells
T4 sequence (Q9Y4B6 whole entry): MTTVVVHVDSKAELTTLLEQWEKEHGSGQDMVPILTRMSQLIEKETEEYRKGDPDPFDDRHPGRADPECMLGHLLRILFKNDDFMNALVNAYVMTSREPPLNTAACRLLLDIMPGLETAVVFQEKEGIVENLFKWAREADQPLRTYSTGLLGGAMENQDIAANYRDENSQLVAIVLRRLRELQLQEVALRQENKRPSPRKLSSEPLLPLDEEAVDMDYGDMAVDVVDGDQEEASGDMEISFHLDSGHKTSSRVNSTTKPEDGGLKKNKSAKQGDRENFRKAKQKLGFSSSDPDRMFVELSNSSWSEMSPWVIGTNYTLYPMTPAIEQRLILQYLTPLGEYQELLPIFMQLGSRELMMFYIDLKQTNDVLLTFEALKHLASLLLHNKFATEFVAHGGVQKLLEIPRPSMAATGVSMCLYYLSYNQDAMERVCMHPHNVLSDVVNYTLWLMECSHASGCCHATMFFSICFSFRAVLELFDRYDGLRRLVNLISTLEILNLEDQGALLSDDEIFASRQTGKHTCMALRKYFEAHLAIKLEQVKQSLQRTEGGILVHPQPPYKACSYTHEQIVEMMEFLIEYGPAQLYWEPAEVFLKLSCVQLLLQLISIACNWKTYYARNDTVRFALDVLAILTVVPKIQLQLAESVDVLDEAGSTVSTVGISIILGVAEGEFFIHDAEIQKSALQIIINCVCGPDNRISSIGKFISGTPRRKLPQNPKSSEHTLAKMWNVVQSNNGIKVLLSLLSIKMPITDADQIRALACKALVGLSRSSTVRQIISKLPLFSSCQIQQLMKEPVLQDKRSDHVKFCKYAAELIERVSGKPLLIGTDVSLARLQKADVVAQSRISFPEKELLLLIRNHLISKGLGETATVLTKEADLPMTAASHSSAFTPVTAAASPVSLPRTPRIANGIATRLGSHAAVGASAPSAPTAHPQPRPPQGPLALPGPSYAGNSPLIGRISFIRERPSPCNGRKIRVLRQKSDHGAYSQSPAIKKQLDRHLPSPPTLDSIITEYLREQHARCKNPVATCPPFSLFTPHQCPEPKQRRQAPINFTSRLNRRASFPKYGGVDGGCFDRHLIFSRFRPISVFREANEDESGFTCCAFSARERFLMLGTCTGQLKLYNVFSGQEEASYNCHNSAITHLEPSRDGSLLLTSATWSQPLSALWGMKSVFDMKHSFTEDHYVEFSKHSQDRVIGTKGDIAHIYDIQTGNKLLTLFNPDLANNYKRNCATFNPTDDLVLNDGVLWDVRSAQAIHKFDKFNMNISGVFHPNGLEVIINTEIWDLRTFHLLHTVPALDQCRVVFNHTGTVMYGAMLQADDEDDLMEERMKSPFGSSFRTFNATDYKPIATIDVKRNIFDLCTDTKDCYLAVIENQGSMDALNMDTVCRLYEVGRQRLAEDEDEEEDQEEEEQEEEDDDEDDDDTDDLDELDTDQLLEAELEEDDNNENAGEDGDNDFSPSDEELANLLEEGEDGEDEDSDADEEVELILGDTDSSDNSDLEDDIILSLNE
Method in brief: as §1

[4] = biological target: T5, ALDH1L2 Mitochondrial 10-formyltetrahydrofolate dehydrogen (Homo sapiens, UniProt Q3SY69)
T5 construct: 200 μL of lysate containing 5 mg/ml proteome was treated with 2 μL of 100× compound stock; endogenous in cells
T5 sequence (Q3SY69 1-923): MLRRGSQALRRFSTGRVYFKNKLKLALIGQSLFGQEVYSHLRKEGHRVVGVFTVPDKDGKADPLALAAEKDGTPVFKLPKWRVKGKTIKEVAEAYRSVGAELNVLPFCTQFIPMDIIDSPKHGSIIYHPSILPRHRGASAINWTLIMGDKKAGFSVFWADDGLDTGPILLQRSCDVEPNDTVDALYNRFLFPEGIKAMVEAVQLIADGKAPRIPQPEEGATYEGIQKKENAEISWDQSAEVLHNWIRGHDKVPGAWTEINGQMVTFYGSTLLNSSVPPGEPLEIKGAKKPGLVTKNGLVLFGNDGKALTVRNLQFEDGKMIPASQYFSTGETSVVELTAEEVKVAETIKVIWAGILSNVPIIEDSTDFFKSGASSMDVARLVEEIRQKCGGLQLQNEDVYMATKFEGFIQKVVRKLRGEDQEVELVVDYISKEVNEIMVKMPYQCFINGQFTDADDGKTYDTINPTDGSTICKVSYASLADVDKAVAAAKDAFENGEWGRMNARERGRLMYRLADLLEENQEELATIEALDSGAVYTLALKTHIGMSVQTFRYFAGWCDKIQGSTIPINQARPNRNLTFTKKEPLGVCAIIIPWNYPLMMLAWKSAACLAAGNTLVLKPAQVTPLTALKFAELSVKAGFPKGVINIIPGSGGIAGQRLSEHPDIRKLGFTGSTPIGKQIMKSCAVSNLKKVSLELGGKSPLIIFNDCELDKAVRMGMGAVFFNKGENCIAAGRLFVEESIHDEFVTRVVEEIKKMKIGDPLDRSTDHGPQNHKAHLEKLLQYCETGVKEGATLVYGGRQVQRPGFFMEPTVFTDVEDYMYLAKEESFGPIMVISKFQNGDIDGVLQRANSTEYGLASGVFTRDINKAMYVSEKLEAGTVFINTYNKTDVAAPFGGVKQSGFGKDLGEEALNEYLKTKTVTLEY
Method in brief: as §1

[5] = biological target: T6, GCN1L1 Translational activator GCN1 (Homo sapiens, UniProt Q92616)
T6 construct: 200 μL of lysate containing 5 mg/ml proteome was treated with 2 μL of 100× compound stock; endogenous in cells
T6 sequence (Q92616 whole entry): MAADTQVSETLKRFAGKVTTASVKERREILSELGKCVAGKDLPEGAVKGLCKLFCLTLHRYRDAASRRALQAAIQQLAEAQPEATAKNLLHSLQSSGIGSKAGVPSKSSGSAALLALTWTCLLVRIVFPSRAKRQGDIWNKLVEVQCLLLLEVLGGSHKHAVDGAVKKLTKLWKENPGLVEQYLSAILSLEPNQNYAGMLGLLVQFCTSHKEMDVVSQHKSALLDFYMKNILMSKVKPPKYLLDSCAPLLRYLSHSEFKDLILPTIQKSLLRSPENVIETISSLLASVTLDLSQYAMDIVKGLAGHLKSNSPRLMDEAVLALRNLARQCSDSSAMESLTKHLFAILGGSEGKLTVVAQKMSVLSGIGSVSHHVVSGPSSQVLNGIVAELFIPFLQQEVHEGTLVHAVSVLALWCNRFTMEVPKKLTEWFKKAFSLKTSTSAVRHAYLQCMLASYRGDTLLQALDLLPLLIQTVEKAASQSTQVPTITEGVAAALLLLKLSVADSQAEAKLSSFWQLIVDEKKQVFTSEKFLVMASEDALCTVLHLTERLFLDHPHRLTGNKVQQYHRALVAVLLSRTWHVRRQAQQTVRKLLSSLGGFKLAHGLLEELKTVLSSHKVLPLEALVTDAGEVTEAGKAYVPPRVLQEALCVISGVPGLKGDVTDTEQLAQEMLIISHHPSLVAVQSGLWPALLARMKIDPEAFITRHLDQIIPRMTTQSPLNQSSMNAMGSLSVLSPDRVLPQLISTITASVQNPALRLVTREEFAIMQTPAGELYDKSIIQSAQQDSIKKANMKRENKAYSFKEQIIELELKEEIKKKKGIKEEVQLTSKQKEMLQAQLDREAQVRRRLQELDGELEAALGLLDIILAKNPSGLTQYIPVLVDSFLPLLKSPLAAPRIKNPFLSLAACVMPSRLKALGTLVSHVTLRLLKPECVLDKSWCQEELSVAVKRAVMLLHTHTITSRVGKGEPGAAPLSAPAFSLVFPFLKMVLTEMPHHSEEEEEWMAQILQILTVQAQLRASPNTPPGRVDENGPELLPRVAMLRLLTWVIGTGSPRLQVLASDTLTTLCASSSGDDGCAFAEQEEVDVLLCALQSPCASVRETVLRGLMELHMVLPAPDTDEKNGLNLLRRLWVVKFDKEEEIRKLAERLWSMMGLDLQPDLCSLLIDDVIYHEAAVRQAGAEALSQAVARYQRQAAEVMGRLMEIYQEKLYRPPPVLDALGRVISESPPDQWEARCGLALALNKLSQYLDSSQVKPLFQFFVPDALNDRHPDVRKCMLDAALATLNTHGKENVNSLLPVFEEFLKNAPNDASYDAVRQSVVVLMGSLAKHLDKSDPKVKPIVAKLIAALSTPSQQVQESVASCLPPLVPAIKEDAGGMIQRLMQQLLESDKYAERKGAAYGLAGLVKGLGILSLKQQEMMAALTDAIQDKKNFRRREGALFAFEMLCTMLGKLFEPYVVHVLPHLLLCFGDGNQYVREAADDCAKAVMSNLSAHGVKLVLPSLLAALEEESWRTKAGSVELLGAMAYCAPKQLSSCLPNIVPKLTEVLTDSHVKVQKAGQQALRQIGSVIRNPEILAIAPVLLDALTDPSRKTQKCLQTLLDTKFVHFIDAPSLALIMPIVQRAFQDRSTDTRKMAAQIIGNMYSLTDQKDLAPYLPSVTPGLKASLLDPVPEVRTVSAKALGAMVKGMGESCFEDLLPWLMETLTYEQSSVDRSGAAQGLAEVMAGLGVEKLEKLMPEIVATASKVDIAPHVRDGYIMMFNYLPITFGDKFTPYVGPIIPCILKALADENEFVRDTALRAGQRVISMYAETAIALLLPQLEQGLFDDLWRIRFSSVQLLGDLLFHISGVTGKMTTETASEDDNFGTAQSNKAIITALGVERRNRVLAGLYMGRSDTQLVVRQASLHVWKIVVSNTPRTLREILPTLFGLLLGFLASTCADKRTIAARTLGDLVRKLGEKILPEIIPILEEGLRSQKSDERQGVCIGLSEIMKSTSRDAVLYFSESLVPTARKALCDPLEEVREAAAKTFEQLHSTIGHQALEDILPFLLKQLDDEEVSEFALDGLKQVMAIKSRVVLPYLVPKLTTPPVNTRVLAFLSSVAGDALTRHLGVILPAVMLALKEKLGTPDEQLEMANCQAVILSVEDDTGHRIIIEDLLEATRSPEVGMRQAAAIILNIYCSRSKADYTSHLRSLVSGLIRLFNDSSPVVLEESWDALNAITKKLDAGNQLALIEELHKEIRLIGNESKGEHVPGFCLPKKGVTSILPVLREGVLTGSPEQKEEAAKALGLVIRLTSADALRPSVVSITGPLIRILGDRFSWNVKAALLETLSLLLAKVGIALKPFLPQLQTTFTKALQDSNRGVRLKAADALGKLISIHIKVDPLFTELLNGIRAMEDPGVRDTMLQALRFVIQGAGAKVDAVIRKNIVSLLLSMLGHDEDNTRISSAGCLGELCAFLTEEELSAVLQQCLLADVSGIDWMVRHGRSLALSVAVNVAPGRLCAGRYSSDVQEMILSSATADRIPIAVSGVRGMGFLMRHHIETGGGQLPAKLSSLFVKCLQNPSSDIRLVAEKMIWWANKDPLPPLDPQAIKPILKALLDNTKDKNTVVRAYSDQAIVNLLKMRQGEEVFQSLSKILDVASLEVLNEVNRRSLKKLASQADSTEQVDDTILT
Method in brief: as §1

T1 sequence (Q14145 whole entry): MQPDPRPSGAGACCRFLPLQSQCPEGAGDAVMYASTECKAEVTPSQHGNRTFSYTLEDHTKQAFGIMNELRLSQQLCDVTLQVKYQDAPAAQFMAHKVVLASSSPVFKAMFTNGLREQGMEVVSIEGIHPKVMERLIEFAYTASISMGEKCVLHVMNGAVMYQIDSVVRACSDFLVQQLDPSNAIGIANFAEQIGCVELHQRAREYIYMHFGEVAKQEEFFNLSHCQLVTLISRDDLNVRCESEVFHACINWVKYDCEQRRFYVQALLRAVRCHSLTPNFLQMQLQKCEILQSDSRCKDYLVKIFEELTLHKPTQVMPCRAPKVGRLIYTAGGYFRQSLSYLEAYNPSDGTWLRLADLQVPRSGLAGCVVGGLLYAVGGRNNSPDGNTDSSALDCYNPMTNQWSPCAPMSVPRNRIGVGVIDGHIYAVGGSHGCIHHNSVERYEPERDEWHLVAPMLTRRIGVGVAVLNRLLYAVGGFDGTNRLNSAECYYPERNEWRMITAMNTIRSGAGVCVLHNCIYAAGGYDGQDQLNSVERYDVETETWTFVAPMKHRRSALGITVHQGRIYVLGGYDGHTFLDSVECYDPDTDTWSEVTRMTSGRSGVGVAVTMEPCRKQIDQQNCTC

SMILES: COc1ccc2c(c1)CCCN2C(=O)CCl [KB02]
- Liganded [1]: YES
- Liganded [2]: YES
- Liganded ([3]; VDAC2 Res# 210, uniprot P45880): YES
- Liganded ([3]; VDAC2 Res# 227, uniprot P45880): YES
- Liganded (VPRBP Protein VPRBP; VPRBP Res# 69, uniprot Q9Y4B6): YES
- Liganded (VPRBP Protein VPRBP; VPRBP Res# 967, uniprot Q9Y4B6): YES

SMILES: O=C(CCl)Nc1cc(C(F)(F)F)cc(C(F)(F)F)c1 [KBO3]
- Liganded ([4]; ALDH1L2 Res# 707, uniprot Q3SY69): YES
- 100 Max ([4]; uniprot Q3SY69): 52.7
- 100 ave ([4]; uniprot Q3SY69): 52.7
- 500 ave ([4]; uniprot Q3SY69): 77.55
- 500 Max ([4]; uniprot Q3SY69, in % (unit assumed)): 77.55
- Liganded ([5]; GCN1L1 Res# 648, uniprot Q92616): YES
- 100 Max ([5]; uniprot Q92616): 28.59
- 100 ave ([5]; uniprot Q92616): 25.61
- 500 Max ([5]; uniprot Q92616): 80.3
- 500 ave ([5]; uniprot Q92616): 78.745

Source: patent US20200239530A1, “COMPOUNDS AND METHODS OF MODULATING PROTEIN DEGRADATION” (Vividion Therapeutics, Inc., priority 2017, published 2020)
